Columns and labels:
human CB1 receptor = biological target: T1, human CB1 receptor (Homo sapiens, UniProt P21554); test: In vitro cannabinoid-CB1 receptor (ant)agonism: [3H]-arachidonic acid release in CHO cells; type: cell-based; conditions: CHO cells with human CB1 receptor, read-out: Human CB1 Arachidonic acid release (CB1) pEC50 (converted)
T1 construct: expressed in transfected cells; host or cells: CHO cells
Protocol: In Vitro Cannabinoid-CB1Receptor (Ant)Agonism
In vitro CB1 receptor antagonism/agonism can be assessed with the human CB1 receptor cloned in Chinese hamster ovary (CHO) cells. CHO cells are grown in a Dulbecco's Modified Eagle's medium (DMEM) culture medium, supplemented with 10% heat-inactivated fetal calf serum. Medium is aspirated and replaced by DMEM, without fetal calf serum, but containing [^3H]-arachidonic acid and incubated overnight in a cell culture stove (5% CO2/95% air; 37° C.; water-saturated atmosphere). During this period [^3H]-arachidonic acid is incorporated in membrane phospholipids. On the test day, medium is aspirated and cells are washed three times using 0.5 ml DMEM, containing 0.2% bovine serum albumin (BSA). CB1 agonist stimulation leads to activation of PLA2 followed by release of [^3H]-arachidonic acid into the medium. This CB1 agonist-induced release is concentration-dependently antagonized by CB1 receptor antagonists, such as for example rimonabant.

[1] = biological target: T2, human cannabinoid CB1 receptor (Homo sapiens, UniProt P21554); test: In vitro affinity for cannabinoid-CB1 receptors ([3H]CP-55,940 radioligand binding, CHO cell membranes); conditions: mean of at least three independent experiments, read-out: Human CB1 receptor binding pKi (converted)
T2 construct: expressed in transfected cells; host or cells: CHO cells, stably transfected; membrane preparation
T2 sequence (P21554 whole entry): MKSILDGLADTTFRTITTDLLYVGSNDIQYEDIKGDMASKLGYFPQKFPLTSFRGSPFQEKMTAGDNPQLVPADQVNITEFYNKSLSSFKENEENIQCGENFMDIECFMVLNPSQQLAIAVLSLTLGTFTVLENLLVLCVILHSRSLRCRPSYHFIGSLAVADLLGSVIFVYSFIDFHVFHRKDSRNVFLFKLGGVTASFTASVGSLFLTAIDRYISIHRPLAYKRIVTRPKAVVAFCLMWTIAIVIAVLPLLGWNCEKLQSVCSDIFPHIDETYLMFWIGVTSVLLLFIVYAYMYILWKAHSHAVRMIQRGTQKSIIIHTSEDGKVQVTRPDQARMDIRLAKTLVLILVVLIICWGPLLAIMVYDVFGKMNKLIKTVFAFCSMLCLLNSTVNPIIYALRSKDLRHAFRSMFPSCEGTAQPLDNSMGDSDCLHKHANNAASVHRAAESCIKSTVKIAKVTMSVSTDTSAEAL
Protocol: In Vitro Affinity for Cannabinoid-CB1 Receptors
(§1) The affinity of the compounds of the invention for cannabinoid CB1 receptors can be determined using membrane preparations of Chinese hamster ovary (CHO) cells in which the human cannabinoid CB1 receptor is stably transfected in conjunction with [^3H]CP-55,940 as radioligand. After incubation of a freshly prepared cell membrane preparation with the [^3H]-ligand, with or without addition of compounds of the invention, separation of bound and free ligand is performed by filtration over glassfiber filters. Radioactivity on the filter is measured by liquid scintillation counting.

[2] = biological target: T3, human cannabinoid CB2 receptor (Homo sapiens, UniProt P34972); test: In vitro affinity for cannabinoid-CB2 receptors ([3H]CP-55,940 radioligand binding, CHO cell membranes); conditions: mean of at least three independent experiments, read-out: Human CB2 receptor binding pK1 (converted)
T3 construct: expressed in transfected cells; host or cells: CHO cells, stably transfected; membrane preparation
T3 sequence (P34972 whole entry): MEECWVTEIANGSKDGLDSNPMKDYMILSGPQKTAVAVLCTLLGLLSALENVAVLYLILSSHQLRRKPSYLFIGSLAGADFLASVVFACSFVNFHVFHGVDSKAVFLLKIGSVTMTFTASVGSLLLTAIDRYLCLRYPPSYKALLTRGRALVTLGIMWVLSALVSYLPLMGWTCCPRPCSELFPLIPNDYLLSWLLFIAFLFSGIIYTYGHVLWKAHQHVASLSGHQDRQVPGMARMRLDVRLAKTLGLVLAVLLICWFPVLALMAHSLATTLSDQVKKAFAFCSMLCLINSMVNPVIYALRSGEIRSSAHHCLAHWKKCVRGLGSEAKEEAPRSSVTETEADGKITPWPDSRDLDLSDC
Protocol: In Vitro Affinity for Cannabinoid-CB2 Receptors
as §1, with “CB2” for “CB1”

human CB2 receptor = biological target: T4, human CB2 receptor (Homo sapiens, UniProt P34972); test: In vitro cannabinoid-CB2 receptor (ant)agonism: forskolin-stimulated cAMP accumulation (adenylate cyclase activity) in CHO K1 cells; type: cell-based; conditions: for EC50: agonism, 3x10^-7 M forskolin, read-out: Human CB2 CB2-mediated adenylate cyclase activity pEC50 (converted)
T4 construct: host or cells: CHO K1 cells
T4 sequence (P34972 whole entry): as above
Protocol: In Vitro Cannabinoid-CB2 Receptor (Ant)Agonism
Functional activity at the cannabinoid CB2 receptor was assessed using a forskolin-stimulated cAMP accumulation assay. The ability of compounds to stimulate and inhibit adenylate cyclase activity was assessed in Chinese ovarian hamster (CHO) K1 cells expressing human CB2 (Euroscreen, Brussel) receptor. CHO cells were grown in a CHO—S—SFM-II culture medium, supplemented with 10% heat-inactivated foetal calf serum, 2 mM glutamine, 400 μg/ml Hygromycine B and 500 μg/ml G418 at 37° C. in 93% air/5% CO2. For incubation with test compounds, confluent cultures grown in 24 well plates were used. Each condition or substance was routinely tested in quadruplicate. Cells were loaded with 1 mCi [^3H]-adenine in 0.5 ml medium per well. After 2 hours, cultures were washed with 0.5 ml PBS containing 1 mM IBMX and incubated for 20 minutes with 0.5 ml PBS containing 1 mM IBMX and 3×10^−7 M forskolin with or without the test compound. Antagonistic effects of test compounds were determined as inhibition of 0.1 μM JWH-133-decreased [^3H]cAMP formation. After aspiration the reaction was stopped with 1 ml trichloroacetic acid (5% w/v). The [3H]-ATP and [^3H]-cAMP formed in the cellular extract were assayed as follows: a volume of 0.8 ml of the extract was passed over Dowex (50WX-4200-400 mesh) and aluminum oxide columns, eluted with water and 0.1 M imidazole (pH=7.5). Eluates were mixed with 7 ml Ultima-Flo [AP] and the β-radioactivity was counted with a liquid scintillation counter. The conversion of [^3H]-ATP into [^3H]-cAMP was expressed as the ratio in percentage radioactivity in the cAMP fraction as compared to the combined radioactivity in both cAMP and ATP fractions, and basal activity was subtracted to correct for spontaneous activity. […] Compounds were studied in a concentration range of 10^−10 M to 10^−6M. pEC50 and the pA2 were calculated according to Cheng-Prusoff equation (Cheng and Prusoff, 1973). […]

T1 sequence (P21554 whole entry): as the sequence (P21554 whole entry) above

| Structure (SMILES) | EC50 (human CB1 receptor) [nM] | Ki [1] [nM] | Ki [2] [nM] | melting point [°C] | EC50 (human CB2 receptor) [nM] | Human CB2 CB2-mediated adenylate cyclase activity pA2 (human CB2 receptor; antagonism of 0.1 μM JWH-133-decreased [3H]cAMP formation) |
| --- | --- | --- | --- | --- | --- | --- |
| CCCCCC1=NN(C(=O)N[C@H]2C[C@H]3CC[C@]2(C)C3(C)C)CC1c1ccccc1 (stereo partly drawn) [Compound 13, N-[Endo-(1R,2S,4R)-1,7,7-trimethylbicyclo[2.2.1]hept-2-yl]-3-(n-pentyl)-4-phenyl-4,5-dihydro-(1H)-pyrazole-1-carboxamide] | 0.501 | 7.94 | 7.94 | – | – | – |
| CCCCCC1=NN(C(=O)NC2CCCCCC2)CC1c1ccccc1 (centres unmarked) [Compound 109, N-cycloheptyl-3-(n-pentyl)-4-phenyl-4,5-dihydro-(1H)-pyrazole-1-carboxamide] | – | 6.31 | 25.1 | – | – | – |
| COc1ccc(NC(=O)N2CC(c3ccc(Cl)cc3)C(Cc3ccc(Cl)cc3)=N2)cc1 (centres unmarked) | – | – | – | 116 to 119 | – | – |
| CCCCCC1=NN(C(=O)Nc2cccc3ccccc23)CC1c1ccccc1 (centres unmarked) [Compound 18, N-(1-Naphtyl)-3-(n-pentyl)-4-phenyl-4,5-dihydro-(1H)-pyrazole-1-carboxamide] | – | 6.31 | 31.6 | – | – | – |
| CC1(C)[C@@H]2CC[C@@]1(C)[C@@H](NC(=O)N1CC(c3ccccc3)C(CC3CC3)=N1)C2 (stereo partly drawn) [Compound 54, N-[Endo-(1R,2S,4R)-1,7,7-trimethylbicyclo[2.2.1]hept-2-yl]-3-(cyclopropylmethyl)-4-phenyl-4,5-dihydro-(1H)-pyrazole-1-carboxamide] | 251 | 25.1 | 39.8 | – | – | – |
| CCCCC1=NN(C(=O)NC(C)(C)Cc2ccccc2)CC1c1ccccc1F (centres unmarked) [Compound 40, N-(2-phenyl-1,1-dimethyl-ethyl)-3-(n-butyl)-4-(2-fluorophenyl)-4,5-dihydro-(1H)-pyrazole-1-carboxamide] | – | 1580 | 158 | – | 7.94 | – |
| CCCCCC1=NN(C(=O)NCC2CCCCC2)CC1c1ccccc1 (centres unmarked) [Compound 12, N-(Cyclohexylmethyl)-3-(n-pentyl)-4-phenyl-4,5-dihydro-(1H)-pyrazole-1-carboxamide] | – | 15.8 | 50.1 | – | – | – |
| CCCCC1=NN(C(=O)NC[C@@H]2CC[C@H]3C[C@@H]2C3(C)C)CC1c1ccccc1 (relative stereo) [Compound 7, N-[(1R,2S,5R)-rel-6,6-dimethylbicyclo[3.1.1]heptan-2-methyl]-3-(n-butyl)-4-phenyl-4,5-dihydro-(1H)-pyrazole-1-carboxamide] | 631 | 39.8 | 10 | – | – | – |
| CCCCCC1=NN(C(=O)c2cccc3ccccc23)CC1c1ccccc1 (centres unmarked) [Compound 87, 1-(1-Naphtoyl)-3-(n-pentyl)-4-phenyl-4,5-dihydro-(1H)-pyrazole] | 15.8 | 79.4 | 100 | – | – | – |
| CCCCCC1=NN(C(=O)NC[C@@H]2CC[C@H]3C[C@@H]2C3(C)C)CC1c1ccccc1 (relative stereo) [Compound 1, N-[(1R,2S,5R)-rel-6,6-dimethylbicyclo[3.1.1]heptan-2-methyl]-3-(n-pentyl)-4-phenyl-4,5-dihydro-(1H)-pyrazole-1-carboxamide] | 2000 | 3.98 | 12.6 | – | – | – |
| O=C(Nc1ccccc1)N1CC(c2ccc(Cl)cc2)C(Cc2ccc(Cl)cc2)=N1 (centres unmarked) [Compound 41, N-Phenyl-3-(4-chlorobenzyl)-4-(4-chlorophenyl)-4,5-dihydro-(1H)-pyrazole-1-carboxamide] | – | 316 | 200 | 156 | – | – |
| CCCCCC1=NN(C(=O)NC2C3CC4CC(C3)CC2C4)CC1c1ccccc1 (centres unmarked) | – | – | – | 71 | – | – |
| CCCCCC1=NN(C(=O)N[C@H]2C[C@H]3CC[C@]2(C)C3(C)C)CC1c1ccccc1 (stereo partly drawn) [Compound 97, N-Endo-[(1R,2S,4R)-1,7,7-trimethylbicyclo[2.2.1]hept-2-yl]-3-(n-pentyl)-4-phenyl-4,5-dihydro-(1H)-pyrazole-1-carboxamide] | < 1 | 5.01 | 5.01 | – | – | 9.2 |
| CCCCCC1=NN(C(=O)NCC23CC4CC(CC(C4)C2)C3)CC1c1ccccc1 (centres unmarked) [Compound 11, N-(1-Adamantyl)methyl-3-(n-pentyl)-4-phenyl-4,5-dihydro-(1H)-pyrazole-1-carboxamide] | 2000 | 15.8 | 7.94 | – | – | – |
| CCCCCC1=NN(S(=O)(=O)NC[C@@H]2CC[C@H]3C[C@@H]2C3(C)C)CC1c1ccccc1 (relative stereo) [Compound 130, N-[(1R,2S,5R)-rel-6,6-dimethylbicyclo[3.1.1]heptan-2-methyl]-3-(n-pentyl)-4-phenyl-4,5-dihydro-(1H)-pyrazole-1-sulfonamide] | – | 316 | 126 | – | – | – |
| CCCCC1=NN(C(=O)NC(C)(C)Cc2ccccc2)CC1c1cccc(F)c1 (centres unmarked) [Compound 39, N-(2-phenyl-1,1-dimethyl-ethyl)-3-(n-butyl)-4-(3-fluorophenyl)-4,5-dihydro-(1H)-pyrazole-1-carboxamide] | – | 3980 | 126 | – | 7.94 | – |
